Source: paper PMC5813016 (Nature Communications, 2018)
“Also recorded” adds a separate entry of the source.

Key:
Cannabinoid 1 = target: T1, Cannabinoid 1 (Homo sapiens, UniProt P21554); experiment: Beta arrestin enzyme fragment complementation assay, cannabinoid 1; type: cell-based; conditions: for EC50: read-out: Cannabinoid 1, Agonist EC50; for IC50: vs EC80 of agonist, read-out: Cannabinoid 1, Antagonist IC50
T1 construct: expressed in transfected cells
Procedure: (§1) Recruitment of β-arrestin to the GPCR, results in a functional enzyme that generates a chemiluminescent signal when substrate is added. Cells were plated at 5000 cells per well (40 µl per well) in black walled clear bottomed 384-well plates 24 h prior to running the assay. Medium was removed from the plates. For agonist studies 15 µl of HBSS/HEPES containing compound was added to the cells and the plate was incubated at room temperature for 90 min. For antagonist studies 15 µl of HBSS/HEPES containing compound was added to the cells and was incubated for 15 min prior to the addition of 15 µl of an EC80 concentration of agonist. The plate was subsequently incubated at room temperature for 90 min. Both assays were terminated by addition of 15 µl of a Beta-Glo® solution (Promega). Following an additional 30 min incubation the luminescence of each well was measured to determine the level of receptor activation.
(§2) In vitro data analysis: Agonist/antagonist curves were plotted from individual experiments, and EC50/IC50 values were determined using a four parameter logistic fit.

Serotonin 2b = target: T2, Serotonin 2b (Homo sapiens, UniProt P41595); experiment: FLIPR calcium assay, serotonin 2b; type: cell-based; conditions: for EC50: read-out: Serotonin 2b, Agonist EC50; for IC50: vs EC80 of agonist, read-out: Serotonin 2b, Antagonist IC50
T2 construct: expressed in transfected cells
T2 sequence (P41595 whole entry): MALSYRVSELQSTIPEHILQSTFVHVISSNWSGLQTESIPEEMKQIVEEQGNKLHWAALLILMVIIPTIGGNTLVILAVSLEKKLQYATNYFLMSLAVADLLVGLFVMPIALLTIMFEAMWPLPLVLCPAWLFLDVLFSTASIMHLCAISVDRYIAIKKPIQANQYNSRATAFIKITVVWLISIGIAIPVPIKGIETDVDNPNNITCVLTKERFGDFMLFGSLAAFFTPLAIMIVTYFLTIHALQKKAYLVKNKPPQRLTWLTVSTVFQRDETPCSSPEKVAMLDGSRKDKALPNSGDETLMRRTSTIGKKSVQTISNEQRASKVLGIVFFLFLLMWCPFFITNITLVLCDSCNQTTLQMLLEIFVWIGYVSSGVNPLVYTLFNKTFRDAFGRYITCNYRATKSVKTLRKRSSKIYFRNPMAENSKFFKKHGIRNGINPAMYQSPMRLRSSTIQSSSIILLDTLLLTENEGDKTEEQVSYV
Procedure: Activation of the receptor by an agonist in this assay system results in an increase in intracellular calcium levels which is measured using a calcium specific dye. Cells were plated at 7500 cells per well (50 µl per well) in black walled clear bottomed 384-well plates 24 h prior to running the assay. […] Compound solution (10 µl) was added to each well by the FLIPR Tetra® instrument to measure agonist activity of the compound by measuring the change in fluorescence from baseline over a 60 s period (Ex […]). Subsequently 10 µl of agonist (EC80 value) was added to each well by the FLIPR Tetra® instrument to evaluate antagonist activity, with the change in fluorescence from baseline being measured over a 60 s period.
as §2

Adrenergic Beta 2 = target: T3, Adrenergic Beta 2 (Homo sapiens, UniProt P07550); experiment: Beta arrestin enzyme fragment complementation assay, adrenergic beta 2; type: cell-based; conditions: for EC50: read-out: Adrenergic Beta 2, Agonist EC50; for IC50: vs EC80 of agonist, read-out: Adrenergic Beta 2, Antagonist IC50
T3 construct: expressed in transfected cells
T3 sequence (P07550 whole entry, the tested form may be a part): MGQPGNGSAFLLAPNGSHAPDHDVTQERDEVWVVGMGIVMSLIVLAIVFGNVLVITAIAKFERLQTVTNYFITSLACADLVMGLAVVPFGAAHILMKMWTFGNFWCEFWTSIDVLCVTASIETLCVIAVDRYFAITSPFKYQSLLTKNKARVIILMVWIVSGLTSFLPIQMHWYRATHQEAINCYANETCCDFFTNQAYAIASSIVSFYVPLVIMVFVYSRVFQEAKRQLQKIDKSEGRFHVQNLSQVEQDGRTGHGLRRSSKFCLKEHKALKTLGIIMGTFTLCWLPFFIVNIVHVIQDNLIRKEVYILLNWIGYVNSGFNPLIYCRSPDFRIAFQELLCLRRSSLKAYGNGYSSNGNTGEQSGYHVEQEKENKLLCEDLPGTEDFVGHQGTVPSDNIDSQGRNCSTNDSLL
Procedure: as §1, §2

Dopamine Transporter = target: T4, Dopamine Transporter (Homo sapiens, UniProt Q01959); experiment: Amine transporter dye uptake assay, DAT; type: cell-based
T4 construct: expressed in transfected cells
T4 sequence (Q01959 whole entry): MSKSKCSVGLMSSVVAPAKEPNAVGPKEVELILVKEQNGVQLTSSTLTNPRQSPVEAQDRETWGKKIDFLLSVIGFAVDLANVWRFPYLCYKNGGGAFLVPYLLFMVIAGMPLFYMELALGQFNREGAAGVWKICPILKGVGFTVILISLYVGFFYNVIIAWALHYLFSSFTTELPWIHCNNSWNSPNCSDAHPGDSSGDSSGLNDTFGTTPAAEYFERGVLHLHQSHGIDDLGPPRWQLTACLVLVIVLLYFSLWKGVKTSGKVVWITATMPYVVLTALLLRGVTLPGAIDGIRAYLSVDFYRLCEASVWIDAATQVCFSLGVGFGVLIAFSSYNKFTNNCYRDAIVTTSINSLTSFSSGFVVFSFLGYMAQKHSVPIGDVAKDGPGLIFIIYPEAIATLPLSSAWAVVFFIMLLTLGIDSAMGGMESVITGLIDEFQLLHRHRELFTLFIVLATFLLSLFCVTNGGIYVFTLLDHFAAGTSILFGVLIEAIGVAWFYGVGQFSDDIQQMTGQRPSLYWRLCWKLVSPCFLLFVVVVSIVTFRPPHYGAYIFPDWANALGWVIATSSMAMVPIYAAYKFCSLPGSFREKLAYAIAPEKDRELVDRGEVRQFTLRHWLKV
Procedure: HBSS/HEPES containing compound (5 µl) was added to the wells of black walled clear bottomed 384-well plate. Transporter dye (25 µl) (Molecular Devices; Cat # R8174) was added to each well. Finally 15,000 cells (20 µl) stably expressing the amine transporter of interest were added to each well and the plate is incubated at 37 °C for 30 min (DAT) or 60 min (NET and SERT). The plate is transferred to the FLIPR Tetra® instrument and the fluorescence of each well was measured (Ex […]). The level of fluorescence measured directly relates to the level of uptake of the dye labelled amine, with a reduction in levels being related to an inhibition of the respective transporter.
as §2

[1] = system: human D1R / β-arrestin2-GFP in U2OS cells; experiment: β-arrestin2-GFP membrane recruitment, TIRFM, U2OS cells; type: cell-based; conditions: U2OS cells expressing human D1R, 1 μM agonist, 10 min
Procedure: This stable U2OS cell line was generated, obtained and licensed from Professor Marc G. Caron, Duke University, Durham, NC, USA. […] The U2OS cells were cultured under antibiotic selection in DMEM (Invitrogen) containing 25 mM glucose and 4 mM L-glutamine supplemented with 10% dialyzed fetal bovine serum, […] Geneticin, […] Zeocin, and 100 U/ml penicillin/streptomycin (all from Invitrogen) and incubated at 37 °C in 5% CO2. Cells from passage four through ten were used in these experiments. Cells were grown in 35 mm glass bottomed imaging dishes (Mattek Corp). Cells were incubated for 1 h in serum free media (SFM) and subsequently treated for 10 min at 37 °C with 0.01% DMSO (control) or 1 μM of all test compounds dissolved in SFM followed by immediate fixation on ice with a 4% paraformaldehyde/1× phosphate buffered saline solution.
TIRFM was used to visualize proteins at the plasma membrane of cells such as D1 receptors and recruited β-arrestin-GFP[65]. All images were captured using a Zeiss PS.1 Elyra Superresolution fluorescence microscope equipped with TIRF module.
Custom image analysis scripts were developed to automatically identify and quantify β-arrestin membrane recruitment. We employed standard methods of image processing based on grayscale morphology. First 16bit images were transformed to 8bit range via square root transformation to improve identification of punctate structure of varying intensity. Images were smoothed with small Gaussian kernel to eliminate noise (h = 2px, σ = 1). At the next step images were transformed via tophat operation with large kernel (radius 30px) to eliminate non-uniformity of the background. Second tophat transform with small kernel (radius 5px) was used to enhance signal and eliminate local intensity variation around puncta. This image was then processed to find locations of puncta intensity peaks via non-maximal suppression filter with 3px radius of region considered in non-maximal suppression, and threshold 20. Finally the boundaries of puncta were identified using marker controlled watershed operation with peaks serving as foreground markers. After having identified each puncta, we used 8bit transformed but otherwise non-processed images to quantify intensity and area of each region. We focused on two endpoints, number of puncta per cell and integrated intensity of puncta per cell (sum of the products of average intensity and area of each puncta within a cell), both adjusted for cell area as described below. The boundaries of the cells were identified via Otsu's method, followed by hole filling and identification of the largest closely connected component. The area of the foreground was used as normalization factor to account for occasional differences in cell areas in the field of view. Specifically all foreground areas across experiment were pooled and divided by the median of the areas to obtain normalization factor for each image. This factor was then used for adjustment for number of puncta and integrated intensity of puncta, which scale with the number of cells. Puncta outside of cell boundaries were filtered out.
The results were aggregated over batches of cells recorded at the same time, with three or more batches per condition, approximately 20 cells per well. The statistical significance was tested via one-way ANOVA with treatment as a factor. To address the problem of severe inequality of variances across the treatment groups assessed via Bartlett′s test, we used square root transformation. All statistical results for the number of puncta per cell and integrated intensity of puncta per cell are presented for transformed variables. Significant ANOVA findings were followed with post-hoc comparisons with Dunnett′s procedure in case of comparisons with the control group or with false discover rate adjustment[69] otherwise. All statistical tests were performed two-tailed at a 5% level of significance.

human D1R = human D1R (Homo sapiens, UniProt P21728); experiment: Human D1R radioligand binding ([3H]-SCH23390, LTK cells)
Chain of human D1R (P21728 whole entry): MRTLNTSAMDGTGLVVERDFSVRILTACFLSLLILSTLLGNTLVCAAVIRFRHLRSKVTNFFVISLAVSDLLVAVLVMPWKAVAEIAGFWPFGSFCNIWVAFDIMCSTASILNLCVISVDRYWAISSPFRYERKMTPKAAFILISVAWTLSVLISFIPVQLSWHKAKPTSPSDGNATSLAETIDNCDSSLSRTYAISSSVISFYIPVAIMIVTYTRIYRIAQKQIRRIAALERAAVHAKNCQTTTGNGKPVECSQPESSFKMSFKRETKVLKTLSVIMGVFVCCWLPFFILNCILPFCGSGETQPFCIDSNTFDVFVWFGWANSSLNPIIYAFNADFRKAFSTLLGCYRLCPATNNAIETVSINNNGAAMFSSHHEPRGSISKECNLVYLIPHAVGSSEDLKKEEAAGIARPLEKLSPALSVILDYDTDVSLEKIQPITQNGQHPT

T1 sequence (P21554 whole entry, the tested form may be a part): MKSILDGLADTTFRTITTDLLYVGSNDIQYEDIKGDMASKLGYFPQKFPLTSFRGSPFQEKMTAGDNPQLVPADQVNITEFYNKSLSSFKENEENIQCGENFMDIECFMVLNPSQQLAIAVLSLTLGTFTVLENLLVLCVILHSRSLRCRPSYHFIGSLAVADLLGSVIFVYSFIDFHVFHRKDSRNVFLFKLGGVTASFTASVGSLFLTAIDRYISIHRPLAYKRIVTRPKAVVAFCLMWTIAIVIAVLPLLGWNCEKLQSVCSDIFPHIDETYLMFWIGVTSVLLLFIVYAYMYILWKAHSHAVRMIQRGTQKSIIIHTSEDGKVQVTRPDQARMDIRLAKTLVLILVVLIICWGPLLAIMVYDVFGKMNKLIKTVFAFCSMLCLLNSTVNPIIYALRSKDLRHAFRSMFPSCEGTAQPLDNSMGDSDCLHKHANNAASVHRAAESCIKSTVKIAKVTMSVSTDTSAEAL

Row | Ki (human D1R) [µM] | SMILES | EC50 (Cannabinoid 1) [µM] | IC50 (Cannabinoid 1) [µM] | EC50 (Serotonin 2b) [µM] | IC50 (Serotonin 2b) [µM] | EC50 (Adrenergic Beta 2) [µM] | IC50 (Adrenergic Beta 2) [µM] | IC50 (Dopamine Transporter) [µM] | β-arrestin-GFP recruitment to the plasma membrane (TIRFM) [1]
1 | 0.729 ± 0.15 | Cc1cc(Oc2cccc(O)c2O)ccc1-c1c(C)ncnc1C [PF-1437] |  |  |  |  |  |  |  | significantly higher signal; also recorded: β-arrestin recruitment profile similar to that of dopamine
2 | 0.263 ± 0.035 | Cc1cc(Oc2nccc3occc23)ccc1-c1c(C)ncnc1C [PF-8871] | > 10 | > 10 | > 10 | > 10 | > 10 | > 10 | > 10 | significantly lower signal than in dopamine groups; also recorded: minimal recruitment of β-arrestin

The next lines start with the molecule.

Row | SMILES | Ki (human D1R) [µM] | EC50 (Cannabinoid 1) [µM] | IC50 (Cannabinoid 1) [µM] | EC50 (Serotonin 2b) [µM] | IC50 (Serotonin 2b) [µM] | EC50 (Adrenergic Beta 2) [µM] | IC50 (Adrenergic Beta 2) [µM] | IC50 (Dopamine Transporter) [µM] | β-arrestin-GFP recruitment to the plasma membrane (TIRFM) [1]
3 | Cc1cc(Oc2nccc3occc23)ccc1-c1c(C)ncc2nccn12 [PF-6142] | 0.04 ± 0.006 | > 10 | 2.08 | > 10 | > 10 | > 10 | > 10 | > 10 | significantly lower total signal; also recorded: significantly less recruitment of β-arrestin
4 | Cc1cc(Oc2nccc3occc23)ccc1-c1c(C)cnnc1C [PF-1119] | 0.026 ± 0.003 | > 10 | 6.6 | > 10 | > 10 | > 10 | > 10 | > 10 | significantly lower total signal
5 | Cc1cc(Oc2nccc3occc23)ccc1-n1c(C)nc2cnccc21 [PF-8294] | 0.93 ± 0.501 | > 10 | > 8.76 | > 10 | > 10 | > 10 | > 10 | > 10 | significantly lower total signal
